Measurements as given in patent US11076595B2, “1-(n,n-disubstituted carbamoyl) 4-(substituted sulfonyl)triazolin-5-one derivative, 4-(n,n-disubstituted carbamoyl) 1-(substituted sulfonyl)triazolin-5-one derivative, and herbicide containing said derivative as active ingredient” (HOKKO CHEMICAL INDUSTRY CO., LTD., priority 2017, dated 2021).

Legend:
Assay type in all cases: in vivo
Amaranthus viridis [1] = experiment: Test Example 14: herbicidal effect test by foliage treatment in upland field; settings: 7 days after sowing, 120 g/10a, 14 days after treatment
In short: (§1)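 Dose: 120 g a.i. per 10 are, sprayed in 100 L water per 10 are onto pots seven days post-sowing in alluvial soil. After 14 days, weed dry weight relative to untreated plots gave suppression rate (%); duplicate plots per concentration.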

Echinochloa crus-galli [2] = experiment: as above; settings: 7 days after sowing, 120 g/10a, 14 days after treatment
In short: as §1

Amaranthus viridis [3] = experiment: Test Example 13: herbicidal effect test by soil treatment in upland field; settings: 120 g/10a, 14 days after treatment
In short: (§2)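 Soil-applied emulsifiable concentrate at 120 g active ingredient per 10 are, sprayed one day after seeding into alluvial soil pots. Dry-weight-based suppression scored at 14 days; two replications.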

crabgrass [4] = experiment: as above; settings: 120 g/10a, 14 days after treatment
In short: as §2

Echinochloa crus-galli [5] = experiment: as above; settings: 120 g/10a, 14 days after treatment
In short: as §2

Chenopodium album [6] = experiment: as above; settings: 120 g/10a, 14 days after treatment
In short: as §2

Monochoria vaginalis [7] = experiment: Test Example 11: herbicidal effect test by soil treatment in paddy field; settings: 120 g/10a active ingredient, 14 days after treatment
In short: (§3)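 Dry weight at day 14 relative to untreated controls gives the suppression rate; duplicate pots. Treatment: 120 g a.i./10 are into paddy water at sowing.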

Lindernia pyxidaria [8] = experiment: as above; settings: 120 g/10a active ingredient, 14 days after treatment
In short: as §3

Scirpus juncoides [9] = experiment: as above; settings: 120 g/10a active ingredient, 14 days after treatment
In short: as §3

Echinochloa crus-galli [10] = experiment: as above; settings: 120 g/10a active ingredient, 14 days after treatment
In short: as §3

Monochoria vaginalis [11] = experiment: Test Example 12: herbicidal effect test by treatment during growing period in paddy field; settings: 120 g/10a; treatment seven days after sowing in flooded paddy pot; assessed 14 days after treatment
In short: (§4)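 Weed suppression (%) = (1 − treated/untreated mean dry weight) × 100, scored 14 days after treatment with two replicates per plot. Dose 120 g a.i. per 10 are, as diluted emulsifiable concentrate added dropwise to flooded pots (water about 3 cm) 7 days post-sowing, seeds at 0-1 cm.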

Lindernia pyxidaria [12] = experiment: as above; settings: 120 g/10a; treatment seven days after sowing in flooded paddy pot; assessed 14 days after treatment
In short: as §4

Scirpus juncoides [13] = experiment: as above; settings: 120 g/10a; treatment seven days after sowing in flooded paddy pot; assessed 14 days after treatment
In short: as §4

Echinochloa crus-galli [14] = experiment: as above; settings: 120 g/10a; treatment seven days after sowing in flooded paddy pot; assessed 14 days after treatment
In short: as §4

crabgrass [15] = experiment: Test Example 14: herbicidal effect test by foliage treatment in upland field; settings: 7 days after sowing, 120 g/10a, 14 days after treatment
In short: as §1

Chenopodium album [16] = experiment: as above; settings: 7 days after sowing, 120 g/10a, 14 days after treatment
In short: as §1

CC(C)N(C(=O)n1cnn(S(=O)(=O)C2CC2)c1=O)c1c(F)cc(F)cc1F [Compound 11-195]
100%: herbicidal effect, Echinochloa crus-galli (Echinochloa crus-galli [2]) | herbicidal effect, Crabgrass (crabgrass [4]) | herbicidal effect, Echinochloa crus-galli (Echinochloa crus-galli [5]) | Weed suppression rate (%) Lindemia pyxidaria (Lindernia pyxidaria [8]) | Weed suppression rate (%) Scirpus juncoides (Scirpus juncoides [9]) | Weed suppression rate (%) Echinochloa crus-galli (Echinochloa crus-galli [10]) | Weed suppression rate (%) Echinochloa crus-galli (Echinochloa crus-galli [14]) | herbicidal effect, Crabgrass (crabgrass [15])
30%: herbicidal effect, Amaranthus viridis (Amaranthus viridis [1])
70%: Weed suppression rate (%) Lindemia pyxidaria (Lindernia pyxidaria [12]) | herbicidal effect, Chenopodium album (Chenopodium album [16])
80%: Weed suppression rate (%) Monochoria vaginalis (Monochoria vaginalis [7])
90%: herbicidal effect, Amaranthus viridis (Amaranthus viridis [3]) | herbicidal effect, Chenopodium album (Chenopodium album [6]) | Weed suppression rate (%) Monochoria vaginalis (Monochoria vaginalis [11]) | Weed suppression rate (%) Scirpus juncoides (Scirpus juncoides [13])

Cc1ccc(N(C(=O)n2cnn(S(=O)(=O)C3CC3)c2=O)C(C)C)c(F)c1 [Compound 11-212]
90%: herbicidal effect, Amaranthus viridis (Amaranthus viridis [1]) | Weed suppression rate (%) Lindemia pyxidaria (Lindernia pyxidaria [8]) | Weed suppression rate (%) Scirpus juncoides (Scirpus juncoides [9]) | Weed suppression rate (%) Scirpus juncoides (Scirpus juncoides [13]) | Weed suppression rate (%) Echinochloa crus-galli (Echinochloa crus-galli [14]) | herbicidal effect, Crabgrass (crabgrass [15])
100%: herbicidal effect, Crabgrass (crabgrass [4]) | herbicidal effect, Echinochloa crus-galli (Echinochloa crus-galli [5]) | Weed suppression rate (%) Echinochloa crus-galli (Echinochloa crus-galli [10])
60%: herbicidal effect, Amaranthus viridis (Amaranthus viridis [3]) | herbicidal effect, Chenopodium album (Chenopodium album [6])
80%: herbicidal effect, Echinochloa crus-galli (Echinochloa crus-galli [2]) | Weed suppression rate (%) Monochoria vaginalis (Monochoria vaginalis [7]) | Weed suppression rate (%) Monochoria vaginalis (Monochoria vaginalis [11]) | Weed suppression rate (%) Lindemia pyxidaria (Lindernia pyxidaria [12]) | herbicidal effect, Chenopodium album (Chenopodium album [16])

CC(C)N(C(=O)n1cnn(S(=O)(=O)C2CC2)c1=O)c1ccc(Cl)cn1 [Compound 11-233]
50%: herbicidal effect, Chenopodium album (Chenopodium album [6]) | herbicidal effect, Chenopodium album (Chenopodium album [16])
90%: herbicidal effect, Echinochloa crus-galli (Echinochloa crus-galli [2]) | herbicidal effect, Crabgrass (crabgrass [4]) | Weed suppression rate (%) Monochoria vaginalis (Monochoria vaginalis [7]) | Weed suppression rate (%) Scirpus juncoides (Scirpus juncoides [9]) | Weed suppression rate (%) Monochoria vaginalis (Monochoria vaginalis [11]) | Weed suppression rate (%) Lindemia pyxidaria (Lindernia pyxidaria [12]) | Weed suppression rate (%) Scirpus juncoides (Scirpus juncoides [13]) | herbicidal effect, Crabgrass (crabgrass [15])
80%: herbicidal effect, Amaranthus viridis (Amaranthus viridis [3]) | herbicidal effect, Echinochloa crus-galli (Echinochloa crus-galli [5])
100%: Weed suppression rate (%) Lindemia pyxidaria (Lindernia pyxidaria [8]) | Weed suppression rate (%) Echinochloa crus-galli (Echinochloa crus-galli [10]) | Weed suppression rate (%) Echinochloa crus-galli (Echinochloa crus-galli [14])
40%: herbicidal effect, Amaranthus viridis (Amaranthus viridis [1])

CC(C)N(C(=O)n1cnn(S(=O)(=O)C2CC2)c1=O)c1ncc(Cl)cc1Cl [Compound 11-234]
80%: herbicidal effect, Echinochloa crus-galli (Echinochloa crus-galli [2]) | herbicidal effect, Echinochloa crus-galli (Echinochloa crus-galli [5]) | herbicidal effect, Chenopodium album (Chenopodium album [6]) | Weed suppression rate (%) Monochoria vaginalis (Monochoria vaginalis [7]) | herbicidal effect, Chenopodium album (Chenopodium album [16])
90%: herbicidal effect, Amaranthus viridis (Amaranthus viridis [1]) | herbicidal effect, Amaranthus viridis (Amaranthus viridis [3]) | herbicidal effect, Crabgrass (crabgrass [4]) | Weed suppression rate (%) Lindemia pyxidaria (Lindernia pyxidaria [8]) | Weed suppression rate (%) Scirpus juncoides (Scirpus juncoides [9]) | Weed suppression rate (%) Echinochloa crus-galli (Echinochloa crus-galli [10]) | Weed suppression rate (%) Monochoria vaginalis (Monochoria vaginalis [11]) | Weed suppression rate (%) Lindemia pyxidaria (Lindernia pyxidaria [12]) | Weed suppression rate (%) Scirpus juncoides (Scirpus juncoides [13]) | Weed suppression rate (%) Echinochloa crus-galli (Echinochloa crus-galli [14]) | herbicidal effect, Crabgrass (crabgrass [15])

CC(C)N(C(=O)n1cnn(S(=O)(=O)C2CC2)c1=O)c1ccc(Cl)nc1Cl [Compound 11-238]
90%: herbicidal effect, Amaranthus viridis (Amaranthus viridis [1]) | herbicidal effect, Amaranthus viridis (Amaranthus viridis [3]) | herbicidal effect, Crabgrass (crabgrass [4]) | Weed suppression rate (%) Scirpus juncoides (Scirpus juncoides [9]) | Weed suppression rate (%) Echinochloa crus-galli (Echinochloa crus-galli [10]) | Weed suppression rate (%) Monochoria vaginalis (Monochoria vaginalis [11]) | Weed suppression rate (%) Scirpus juncoides (Scirpus juncoides [13]) | herbicidal effect, Crabgrass (crabgrass [15])
100%: Weed suppression rate (%) Lindemia pyxidaria (Lindernia pyxidaria [8]) | Weed suppression rate (%) Echinochloa crus-galli (Echinochloa crus-galli [14])
80%: herbicidal effect, Echinochloa crus-galli (Echinochloa crus-galli [2]) | herbicidal effect, Echinochloa crus-galli (Echinochloa crus-galli [5]) | herbicidal effect, Chenopodium album (Chenopodium album [6]) | Weed suppression rate (%) Monochoria vaginalis (Monochoria vaginalis [7]) | Weed suppression rate (%) Lindemia pyxidaria (Lindernia pyxidaria [12]) | herbicidal effect, Chenopodium album (Chenopodium album [16])
